The values that follow come from ChEMBL document CHEMBL4368891, “Conformationally restricted quinazolone derivatives as PI3Kδ-selective inhibitors: the design, synthesis and biological evaluation” (Medchemcomm, 2019).

Calls of active or inactive are those of the source. The calls are words filed in the database; no cut-off is given here.

As usually defined, the half-life is the time in which the quantity being followed falls by half. By IC50 is commonly meant the point on the concentration scale where inhibition reaches its midpoint. Read a low IC50 as greater potency in that assay. In general, GI50 refers to the concentration that inhibits growth by half. Low values mean more potent growth inhibition, high ones less potent growth inhibition. For orientation: AUC(0-t) means the area under the concentration-time curve up to a stated or last time point. Read a low AUC(0-t) as low exposure. A word on the microsomal CLint: it is a measure of how fast metabolising enzymes remove a compound, apart from limits set by blood flow. Higher therefore signals faster metabolism. Usually fraction remaining stands for what is left of the initial amount, in per cent.

A short description of series [1]: Half life in Sprague-Dawley rat at 10 mg/kg, po administered via gavage by LC-MS/MS analysis. Type of series: ADME, organism-based. The following applies: in vivo.
Series [2] concerns the target T1, Phosphatidylinositol 4,5-bisphosphate 3-kinase catalytic subunit delta isoform (Homo sapiens, UniProt O00329).
T1 sequence (O00329 whole entry): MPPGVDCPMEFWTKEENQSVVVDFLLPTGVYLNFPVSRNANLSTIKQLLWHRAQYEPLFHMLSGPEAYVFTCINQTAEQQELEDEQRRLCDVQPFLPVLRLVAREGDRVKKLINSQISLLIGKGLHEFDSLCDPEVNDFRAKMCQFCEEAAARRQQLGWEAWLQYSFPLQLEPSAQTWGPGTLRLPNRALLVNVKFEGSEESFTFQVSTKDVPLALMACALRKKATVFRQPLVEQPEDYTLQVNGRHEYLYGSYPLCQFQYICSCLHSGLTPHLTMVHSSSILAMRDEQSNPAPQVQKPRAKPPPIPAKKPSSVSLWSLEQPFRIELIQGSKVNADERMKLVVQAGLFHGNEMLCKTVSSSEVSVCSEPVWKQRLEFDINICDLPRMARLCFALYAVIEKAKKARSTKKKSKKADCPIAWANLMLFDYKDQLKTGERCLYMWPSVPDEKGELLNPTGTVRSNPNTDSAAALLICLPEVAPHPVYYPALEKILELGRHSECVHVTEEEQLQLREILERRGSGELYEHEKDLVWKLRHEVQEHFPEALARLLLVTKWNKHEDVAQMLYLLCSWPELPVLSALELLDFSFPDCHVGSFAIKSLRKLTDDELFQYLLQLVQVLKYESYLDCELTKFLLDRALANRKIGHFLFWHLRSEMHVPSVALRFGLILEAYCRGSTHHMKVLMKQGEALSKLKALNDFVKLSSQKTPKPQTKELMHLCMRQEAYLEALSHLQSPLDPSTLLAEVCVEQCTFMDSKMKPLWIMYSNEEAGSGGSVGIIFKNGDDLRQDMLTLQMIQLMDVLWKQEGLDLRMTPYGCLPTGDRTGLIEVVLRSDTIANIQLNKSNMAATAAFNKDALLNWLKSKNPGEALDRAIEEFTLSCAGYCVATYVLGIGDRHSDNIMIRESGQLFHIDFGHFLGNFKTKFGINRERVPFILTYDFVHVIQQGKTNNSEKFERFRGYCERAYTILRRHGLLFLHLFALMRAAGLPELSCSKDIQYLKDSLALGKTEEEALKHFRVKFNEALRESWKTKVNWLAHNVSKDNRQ
Nature of the series: Inhibition of PI3Kdelta (unknown origin) using PIP2 as substrate after 2 hrs by ADP-Glo assay. For orientation: ADP-Glo turns the ADP formed in a reaction into a luminescent signal.

The subject of a further series is SU-DHL-6. Nature of the series: Antiproliferative activity against human SU-DHL6 cells after 72 hrs by CellTiter-Glo luminescent cell viability assay. The class given is functional. Conditions: SU-DHL-6, 72 h. For orientation: ATP-based viability assays read luminescence as a measure of living cells.
For series [3], the target named is Phosphatidylinositol 4,5-bisphosphate 3-kinase catalytic subunit alpha isoform (Homo sapiens, UniProt P42336). Nature of the series: Inhibition of PI3Kalpha (unknown origin) using PIP2 as substrate after 2 hrs by ADP-Glo assay.
The target in series [4] is Phosphatidylinositol 4,5-bisphosphate 3-kinase catalytic subunit beta isoform (Homo sapiens, UniProt P42338). Nature of the series: Inhibition of PI3Kbeta (unknown origin) using PIP2 as substrate after 2 hrs by ADP-Glo assay.
In series [5] the target is Phosphatidylinositol 4,5-bisphosphate 3-kinase catalytic subunit gamma isoform (Homo sapiens, UniProt P48736). Nature of the series: Inhibition of PI3Kgamma (unknown origin) using PIP2 as substrate after 2 hrs by ADP-Glo assay.
In series [6] the target is T2, Phosphatidylinositol 4,5-bisphosphate 3-kinase catalytic subunit delta isoform (Homo sapiens) (UniProt O00329).
T2 sequence (whole entry): T1 sequence (O00329 whole entry)
Nature of the series: Inhibition of PI3Kdelta in human SU-DHL6 cells assessed as reduction in Akt phosphorylation at S473 residue after 2 hrs by Western blot analysis. The class given is cell-based. (In general: In western blotting, separated proteins are transferred to a membrane and probed.)

Series [7] deals with T2, Phosphatidylinositol 4,5-bisphosphate 3-kinase catalytic subunit delta isoform (Homo sapiens). Nature of the series: Inhibition of PI3Kdelta in human SU-DHL6 cells assessed as reduction in S6K1 phosphorylation at T389 residue after 2 hrs by Western blot analysis. The class given is cell-based.
The target is the same in series [8]. Nature of the series: Inhibition of PI3Kdelta in human SU-DHL6 cells assessed as reduction in Akt phosphorylation at S473 residue at 100 nM after 2 hrs by Western blot analysis. The class given is cell-based.
Series [9] shares this target. Nature of the series: Inhibition of PI3Kdelta in human SU-DHL6 cells assessed as reduction in S6K1 phosphorylation at T389 residue a at 100 nM after 2 hrs by Western blot analysis. The class given is cell-based.
Series [10] in a line: AUC (0 to last) in Sprague-Dawley rat at 10 mg/kg, po administered via gavage by LC-MS/MS analysis. The class given is ADME, organism-based. Set-up: dose 10 mg/kg, time 0 - last, route oral. Conditions: in vivo.
For series [11] the following is noted: human, microsomes.
Description: Intrinsic clearance in liver by measuring in intrinsic clearance in human liver microsomes in presence of NADPH by LC-MS/MS analysis
The conditions of series [12]: rat, microsomes.
Description: Intrinsic clearance in liver by measuring in intrinsic clearance in rat liver microsomes in presence of NADPH by LC-MS/MS analysis
The nature of series [13]: in vitro. The following applies: human, liver microsomes.
Description: Half life in human liver microsomes in presence of NADPH by LC-MS/MS analysis
Series [14] can be described thus: in vitro. Conditions: human, liver microsomes. The source holds these as a separate data set.
Description: Intrinsic clearance in human liver microsomes assessed per mg protein in presence of NADPH by LC-MS/MS analysis
Series [15] can be described thus: in vitro. Conditions: human, liver microsomes. This is another data set of the same source.
Description: Metabolic stability in human liver microsomes assessed as compound remaining after 60 mins in presence of NADPH by LC-MS/MS analysis
A short description of series [16]: in vitro. The following applies: rat, liver microsomes.
Description: Half life in rat liver microsomes in presence of NADPH by LC-MS/MS analysis
The nature of series [17]: in vitro. Conditions: rat, liver microsomes. This is another data set of the same source.
Description: Intrinsic clearance in rat liver microsomes assessed per mg protein in presence of NADPH by LC-MS/MS analysis
Series [18] can be described thus: in vitro. The following applies: rat, liver microsomes. The source holds these as a separate data set.
Description: Metabolic stability in rat liver microsomes assessed as compound remaining after 60 mins in presence of NADPH by LC-MS/MS analysis

Phosphatidylinositol 4,5-bisphosphate 3-kinase catalytic subunit gamma isoform, sequence (P48736 whole entry, canonical isoform): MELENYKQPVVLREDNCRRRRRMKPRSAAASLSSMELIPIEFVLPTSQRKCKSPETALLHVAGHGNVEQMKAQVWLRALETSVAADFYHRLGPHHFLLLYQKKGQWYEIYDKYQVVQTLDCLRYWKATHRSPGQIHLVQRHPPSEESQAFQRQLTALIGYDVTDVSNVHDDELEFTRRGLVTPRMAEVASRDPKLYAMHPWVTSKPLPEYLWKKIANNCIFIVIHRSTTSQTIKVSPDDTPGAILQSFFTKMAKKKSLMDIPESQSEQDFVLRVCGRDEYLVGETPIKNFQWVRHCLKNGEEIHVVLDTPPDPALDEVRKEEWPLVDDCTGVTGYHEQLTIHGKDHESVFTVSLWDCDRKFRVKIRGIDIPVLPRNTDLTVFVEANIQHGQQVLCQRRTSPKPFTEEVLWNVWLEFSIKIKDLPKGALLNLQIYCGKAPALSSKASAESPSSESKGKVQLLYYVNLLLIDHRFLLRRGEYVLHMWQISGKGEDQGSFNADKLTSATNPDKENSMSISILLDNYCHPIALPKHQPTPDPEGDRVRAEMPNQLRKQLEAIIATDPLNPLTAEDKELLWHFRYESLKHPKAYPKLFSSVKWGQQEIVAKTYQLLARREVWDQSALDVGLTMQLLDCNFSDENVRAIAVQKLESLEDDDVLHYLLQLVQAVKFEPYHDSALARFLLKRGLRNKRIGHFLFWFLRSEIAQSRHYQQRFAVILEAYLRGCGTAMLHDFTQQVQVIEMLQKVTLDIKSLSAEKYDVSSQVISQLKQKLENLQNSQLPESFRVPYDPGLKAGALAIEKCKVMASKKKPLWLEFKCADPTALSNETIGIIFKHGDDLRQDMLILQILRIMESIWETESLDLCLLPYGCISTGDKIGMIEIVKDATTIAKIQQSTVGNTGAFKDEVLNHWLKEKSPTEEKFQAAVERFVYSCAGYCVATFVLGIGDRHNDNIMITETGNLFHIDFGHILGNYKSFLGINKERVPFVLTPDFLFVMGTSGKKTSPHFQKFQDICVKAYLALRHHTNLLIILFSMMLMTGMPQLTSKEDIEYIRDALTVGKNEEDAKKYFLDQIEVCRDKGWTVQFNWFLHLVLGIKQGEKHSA
Phosphatidylinositol 4,5-bisphosphate 3-kinase catalytic subunit alpha isoform, sequence (P42336 whole entry, canonical isoform): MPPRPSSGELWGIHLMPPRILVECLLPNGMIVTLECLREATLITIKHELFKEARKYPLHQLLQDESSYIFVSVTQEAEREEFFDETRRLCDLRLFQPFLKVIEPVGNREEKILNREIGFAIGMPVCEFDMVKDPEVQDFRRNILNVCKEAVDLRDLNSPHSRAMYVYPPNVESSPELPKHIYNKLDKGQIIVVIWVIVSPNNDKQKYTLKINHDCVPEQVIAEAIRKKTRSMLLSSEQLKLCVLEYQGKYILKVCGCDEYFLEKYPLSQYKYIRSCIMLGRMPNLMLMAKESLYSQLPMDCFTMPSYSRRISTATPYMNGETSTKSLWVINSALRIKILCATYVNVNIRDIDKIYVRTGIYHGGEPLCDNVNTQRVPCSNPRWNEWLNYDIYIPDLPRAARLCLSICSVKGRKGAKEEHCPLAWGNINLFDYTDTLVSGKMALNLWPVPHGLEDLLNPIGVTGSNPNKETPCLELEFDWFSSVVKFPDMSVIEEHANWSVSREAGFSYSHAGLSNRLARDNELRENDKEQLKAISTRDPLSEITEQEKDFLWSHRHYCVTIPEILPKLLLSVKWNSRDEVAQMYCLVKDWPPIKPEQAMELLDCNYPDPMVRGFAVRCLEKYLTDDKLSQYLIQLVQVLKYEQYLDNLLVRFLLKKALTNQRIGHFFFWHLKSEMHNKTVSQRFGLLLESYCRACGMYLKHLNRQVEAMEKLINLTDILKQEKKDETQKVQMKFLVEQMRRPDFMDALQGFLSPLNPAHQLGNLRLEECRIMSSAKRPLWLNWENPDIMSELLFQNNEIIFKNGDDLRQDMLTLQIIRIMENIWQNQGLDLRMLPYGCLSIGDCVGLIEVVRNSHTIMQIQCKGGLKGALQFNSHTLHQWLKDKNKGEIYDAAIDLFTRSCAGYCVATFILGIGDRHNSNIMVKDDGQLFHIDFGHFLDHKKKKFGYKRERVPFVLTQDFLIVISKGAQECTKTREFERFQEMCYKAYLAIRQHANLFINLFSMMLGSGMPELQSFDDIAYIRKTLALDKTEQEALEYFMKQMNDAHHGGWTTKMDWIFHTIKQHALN
Phosphatidylinositol 4,5-bisphosphate 3-kinase catalytic subunit beta isoform, sequence (P42338 whole entry, canonical isoform): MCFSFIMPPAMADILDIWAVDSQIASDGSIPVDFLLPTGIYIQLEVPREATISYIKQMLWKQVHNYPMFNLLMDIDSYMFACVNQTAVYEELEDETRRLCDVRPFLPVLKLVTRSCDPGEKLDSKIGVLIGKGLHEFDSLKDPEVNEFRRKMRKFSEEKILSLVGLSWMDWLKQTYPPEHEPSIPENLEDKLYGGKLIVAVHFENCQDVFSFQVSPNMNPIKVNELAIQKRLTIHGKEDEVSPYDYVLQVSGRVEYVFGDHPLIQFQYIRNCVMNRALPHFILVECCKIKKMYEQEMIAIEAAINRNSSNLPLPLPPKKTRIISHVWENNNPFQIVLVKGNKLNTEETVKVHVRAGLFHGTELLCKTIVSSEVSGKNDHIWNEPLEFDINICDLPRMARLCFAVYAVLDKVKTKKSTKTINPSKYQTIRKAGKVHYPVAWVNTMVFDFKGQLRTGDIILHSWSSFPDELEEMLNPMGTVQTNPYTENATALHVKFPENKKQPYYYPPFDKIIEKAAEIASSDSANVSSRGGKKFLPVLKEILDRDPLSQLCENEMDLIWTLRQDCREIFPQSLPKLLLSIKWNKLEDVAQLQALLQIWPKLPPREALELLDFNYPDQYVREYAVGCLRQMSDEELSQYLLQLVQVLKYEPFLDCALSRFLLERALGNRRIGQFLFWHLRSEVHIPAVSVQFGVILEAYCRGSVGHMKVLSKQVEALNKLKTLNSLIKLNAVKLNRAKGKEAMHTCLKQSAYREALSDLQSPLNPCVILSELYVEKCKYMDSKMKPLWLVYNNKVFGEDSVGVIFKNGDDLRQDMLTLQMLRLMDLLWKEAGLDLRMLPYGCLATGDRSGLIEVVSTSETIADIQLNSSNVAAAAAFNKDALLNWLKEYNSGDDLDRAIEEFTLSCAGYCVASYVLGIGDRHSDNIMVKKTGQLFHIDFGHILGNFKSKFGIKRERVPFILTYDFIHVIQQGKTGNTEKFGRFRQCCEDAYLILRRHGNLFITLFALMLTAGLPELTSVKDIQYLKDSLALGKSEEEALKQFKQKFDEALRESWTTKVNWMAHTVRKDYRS

Consider `N#Cc1c(N)ncnc1N1CCC[C@H]1c1nc2cccc(F)c2c(=O)n1C1CCCC1`, for which the half-life in series [1] was 246 min; in “in vitro [13]” it was 17.5 min; in the series “in vitro [16]”, 15.1 min. The IC50 in series [2] is 0.0063 µM; in [3], 8.59 µM; in [4], 1.55 µM; in [5], 0.354 µM. The same compound gave a GI50 with SU-DHL-6 of 0.21 µM. For the same compound, the inhibition result in [6] and in series [7] was “Dose-dependent effect” in each case. In addition, the inhibition result in series [8] and in [9] was “Active” in each case. This compound also gave an exposure AUC(0-t) in series [10] of 0.0508 µg·h/mL. Further, the figures for the CLH in [11] and in [12] were 0.0713 mL/min/kg and 0.1651 mL/min/kg, respectively. For the same compound, the microsomal CLint in the series “in vitro [14]” stood at 79.2 µL/min/mg; in “in vitro [17]”, 91.7 µL/min/mg. In addition, the fraction remaining at 1 h came to 9.1% in “in vitro [15]” and 6.2% in “in vitro [18]”.

The compound `O=c1c2ccccc2nc([C@@H]2CCCN2c2ncnc3[nH]cnc23)n1Cc1ccccc1` yielded an IC50 in series [2] of 0.498 µM. The same compound showed a GI50 in the series on SU-DHL-6 of 0.58 µM.

As for `O=c1c2c(F)cccc2nc([C@@H]2CCCN2c2nc(F)nc3[nH]cnc23)n1Cc1ccccc1`, in series [2], the IC50 is 0.091 µM. In the series with SU-DHL-6, the GI50 is 0.38 µM.

In series [2], `CCCCn1c([C@@H]2CCCN2c2ncnc3[nH]cnc23)nc2cccc(F)c2c1=O` came in with an IC50 of 0.042 µM. The GI50 with SU-DHL-6 is 0.64 µM.

In turn, `O=c1c2c(F)cccc2nc([C@@H]2CCCN2c2ncnc3[nH]cnc23)n1C1CCCC1` came in with an IC50 in series [2] of 0.038 µM. The compound also registered a GI50 in the series with SU-DHL-6 of 2.65 µM.

As for `C[C@]12CC[C@H]3[C@@H](CCC4=CC(=O)CC[C@@]43C)[C@@H]1CC[C@@H]2O` [TESTOSTERONE], the CLH came to 0.0911 mL/min/kg in series [11] and 3.7756 mL/min/kg in series [12].

Take `O=c1c2c(F)cccc2nc([C@@H]2CCCN2c2ncnc3[nH]cnc23)n1Cc1ccccc1`: in series [2], the IC50 is 0.058 µM. This compound also yielded a GI50 in the series with SU-DHL-6 of 0.48 µM.

`N#Cc1c(N)ncnc1N1CCC[C@H]1c1nc2cccc(F)c2c(=O)n1Cc1ccccc1`: the IC50 in series [2] is 0.022 µM; in series [3], 4.94 µM; in [4] it was 6.24 µM; in [5], 0.587 µM. For the same compound, the GI50 in the series with SU-DHL-6 stood at 0.33 µM. The CLH in [11] stood at 0.0401 mL/min/kg; in series [12], 1.5571 mL/min/kg. Moreover, the half-life turned out to be 31.1 min in “in vitro [13]” and 1.6 min in “in vitro [16]”. Also, the microsomal CLint in “in vitro [14]” was determined as 44.6 µL/min/mg; in the series “in vitro [17]” it was 865 µL/min/mg. For the same compound, the fraction remaining at 1 h stood at 25.5% in “in vitro [15]” and 0.1% in “in vitro [18]”.

Compound `O=c1c2c(F)cccc2nc([C@@H]2CCCN2c2ncnc3[nH]cnc23)n1C1CCC1` returned an IC50 in series [2] of 0.635 µM. Also, the GI50 with SU-DHL-6 was determined as 0.63 µM.

The compound `CC[C@H](Nc1ncnc2[nH]cnc12)c1nc2cccc(F)c2c(=O)n1-c1ccccc1` [IDELALISIB] showed a GI50 in the series with SU-DHL-6 of 0.02 µM.

`O=C(O)Cc1ccccc1Nc1c(Cl)cccc1Cl` [DICLOFENAC] yielded a CLH in [12] of 0.143 mL/min/kg.

In [2], `O=c1c2c(F)cccc2nc([C@@H]2CCCN2c2nc(F)nc3[nH]cnc23)n1C1CCCC1` had an IC50 of 0.178 µM. The same compound came in with a GI50 with SU-DHL-6 of 1.89 µM.

In series [2], `O=c1c2c(F)cccc2nc([C@@H]2CCCN2c2ncnc3[nH]cnc23)n1C1CCCCC1` yielded an IC50 of 0.033 µM. This compound returned a GI50 with SU-DHL-6 of 0.51 µM.
